Patent US8558011B2, “Cold menthol receptor-1 antagonists” (Janssen Pharmaceutica, NV, priority 2010, dated 2013)
“And” between values parts separate entries of the source, which are not always exact repeats. Equal entries are not always repeated.

Target: T1, canine TRPM8 (Canis lupus familiaris, UniProt Q1A7N1)
T1 construct: expressed in transfected cells
Test: In Vitro Canine TRPM8 Functional Assay (Ca2+-sensitive fluorescent dye, icilin activation, FLIPR/FDSS)
Type: cell-based
Settings: HEK293 cells stably expressing canine TRPM8, icilin activation; for % I (1 μM): compound at 1 μM; for IC50: eight-point dose-response; for % I (0.5 μM): compound at 0.5 μM
Method: The functional activity of compounds of Formula (I) was determined by measuring changes in intracellular calcium concentration using a Ca^2+-sensitive fluorescent dye. The changes in fluorescent signal were monitored by a fluorescence plate reader, either a FLIPR™ (Molecular Devices) or FDSS (Hamamatsu).
HEK293 cells stably expressing canine TRPM8 were routinely grown as monolayers in Dulbecco's minimum essential medium supplemented with 10% FBS, 1 mM L-glutamine, 100 units/mL penicillin, 100 ug/mL streptomycin and 400 μg/mL G418. Cells were maintained in 5% CO2 at 37° C. At 24 hrs prior to assay, cells were seeded in clear-base poly-D-lysine coated 384-well plates (BD Biosciences, NJ, USA) at a density of 5,000 cells per well in culture medium and grown overnight in 5% CO2 at 37° C. On assay day, growth media was removed and cells were loaded with Calcium 3 Dye (Molecular Devices) for 35 min at 37° C., under 5% CO2 and then for 25 min at room temperature and atmosphere. Subsequently, cells were tested for agonist-induced increases in intracellular Ca^2+ levels using FLIPR™ or FDSS. Cells were challenged with a compound of Formula (I) (at varying concentrations) and intracellular Ca^2+ was measured for 5 min prior to the addition of icilin to all wells to achieve a final concentration which produces approximately an 80% maximal response.
Basal FI was subtracted prior to normalizing data to percent of maximal response. Curves were generated using the average of quadruplicate wells for each data point, were analyzed using nonlinear regression of either sigmoidal dose response or sigmoidal dose response (variable slope). Finally, the EC50 and IC50 values were calculated with the best-fit dose curve determined by GraphPad Prism.

T1 sequence (Q1A7N1 1-1104): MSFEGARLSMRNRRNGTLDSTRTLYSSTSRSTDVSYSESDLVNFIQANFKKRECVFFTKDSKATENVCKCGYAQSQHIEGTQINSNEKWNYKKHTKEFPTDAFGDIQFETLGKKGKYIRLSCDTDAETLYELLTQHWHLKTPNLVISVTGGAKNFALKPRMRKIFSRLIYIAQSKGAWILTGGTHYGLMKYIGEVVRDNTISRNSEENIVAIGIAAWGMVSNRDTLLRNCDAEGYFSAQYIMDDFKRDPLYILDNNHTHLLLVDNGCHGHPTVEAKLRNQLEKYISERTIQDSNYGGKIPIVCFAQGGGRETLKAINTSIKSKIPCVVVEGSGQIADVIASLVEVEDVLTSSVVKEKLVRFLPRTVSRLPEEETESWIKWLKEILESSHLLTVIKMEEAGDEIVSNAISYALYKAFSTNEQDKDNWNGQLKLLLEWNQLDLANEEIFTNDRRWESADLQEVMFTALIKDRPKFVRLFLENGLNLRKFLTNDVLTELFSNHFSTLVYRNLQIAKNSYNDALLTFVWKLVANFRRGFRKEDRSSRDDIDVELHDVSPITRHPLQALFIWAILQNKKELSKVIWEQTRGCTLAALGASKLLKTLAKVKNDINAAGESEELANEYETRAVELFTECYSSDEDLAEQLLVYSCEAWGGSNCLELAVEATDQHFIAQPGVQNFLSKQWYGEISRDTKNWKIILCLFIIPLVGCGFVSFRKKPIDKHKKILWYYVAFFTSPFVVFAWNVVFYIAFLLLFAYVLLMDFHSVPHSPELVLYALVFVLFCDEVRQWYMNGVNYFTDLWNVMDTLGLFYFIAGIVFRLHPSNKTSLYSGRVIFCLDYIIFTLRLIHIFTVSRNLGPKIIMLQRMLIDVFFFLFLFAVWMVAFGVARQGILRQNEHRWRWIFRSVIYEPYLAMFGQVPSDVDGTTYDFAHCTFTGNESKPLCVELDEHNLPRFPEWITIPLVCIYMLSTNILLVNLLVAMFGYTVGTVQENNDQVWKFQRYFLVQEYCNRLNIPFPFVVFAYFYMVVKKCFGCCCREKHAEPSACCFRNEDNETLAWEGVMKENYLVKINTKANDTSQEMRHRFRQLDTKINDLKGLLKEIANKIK

SMILES	% I (1 μM)	IC50	% I (0.5 μM)	% I (5 μM) (compound at 5 μM)
CCOP(=O)(OCC)C(Cc1ccc(F)c(F)c1)c1oc2ccccc2c1C (centres unmarked) [Cpd 9, [2-(3,4-Difluoro-phenyl)-1-(3-methyl-benzofuran-2-yl)-ethyl]-phosphonic acid diethyl ester]	100%			
CC(C)OP(=O)(OC(C)C)C(Cc1ccc(F)c(F)c1)c1sc2ccccc2c1C1CCCC1 (racemic) [Cpd 38]	99%	140 nM		
CCOP(=O)(OCC)C(Cc1ccc(OC(F)(F)F)c(Cl)c1)c1sc2ccccc2c1Br (centres unmarked) [Cpd 149]		60 nM	103%	
CCOP(=O)(OCC)C(Cc1cccc(OC(F)(F)F)c1)c1sc2ccccc2c1Br (centres unmarked) [Cpd 145]		119 nM and 116 nM	103, % and 102%	
CCOP(=O)(OCC)C(Cc1ccc(Cl)c(C(F)(F)F)c1)c1sc2ccccc2c1Cl (centres unmarked) [Cpd 287]		124 nM	103%	
CCOP(=O)(OCC)C(Cc1ccc(F)c(F)c1)c1oc2cccc(F)c2c1Br (centres unmarked) [Cpd 206]	100%	98 nM		
CCOP(=O)(OCC)C(C)(Cc1ccc(F)c(F)c1)c1sc2ccccc2c1C (centres unmarked) [Cpd 79, [2-(3,4-Difluoro-phenyl)-1-methyl-1-(3-methyl-benzo[b]-thiophen-2-yl)-ethyl]-phosphonic acid diethyl ester]	88%			
CCOP(=O)(OCC)C(Cc1cccc(Cl)c1F)c1sc2ccccc2c1Br (centres unmarked) [Cpd 143]		67 nM	101%	
CCOP(=O)(OCC)C(Cc1ccc(C(F)(F)F)cc1)c1sc2ccccc2c1Br (centres unmarked) [Cpd 154]		27 nM	103%	
COc1cc(CC(c2sc3ccccc3c2Br)P(=O)(OC(C)C)OC(C)C)c(F)cc1Cl (centres unmarked) [Cpd 165]		86 nM	102%	
CCOP(=O)(OCC)C(Cc1ccc(F)c(F)c1)c1sc2cccc(F)c2c1C (centres unmarked) [Cpd 3, [2-(3,4-Difluoro-phenyl)-1-(4-fluoro-3-methyl-benzo[b]-thiophene-2-yl)-ethyl]-phosphonic acid diethyl ester]	100%			
CCOP(=O)(OCC)C(Cc1ccc(SC(F)(F)F)cc1)c1sc2ccccc2c1Br (centres unmarked) [Cpd 153]		43 nM	103%	
CC(C)OP(=O)(OC(C)C)C(Cc1ccc(SC(F)(F)F)cc1)c1sc2ccccc2c1Cl (centres unmarked) [Cpd 304]		28 nM	102%	
CC(C)OP(=O)(OC(C)C)C(Cc1cc(Cl)ccc1F)c1sc2ccccc2c1Cl (centres unmarked) [Cpd 303]		49 nM	102%	
CC(C)OP(=O)(OC(C)C)C(Cc1c(F)c(F)c(O)c(F)c1F)c1sc2ccccc2c1Br (centres unmarked) [Cpd 229]		156 nM	95%	
CCOP(=O)(OCC)C(Cc1cc(C(F)(F)F)ccc1Cl)c1sc2ccccc2c1Br (centres unmarked) [Cpd 148]		172 nM	103%	
CCOP(=O)(OCC)C(Cc1ccc(Cl)c(Cl)c1)c1cc2ccccc2s1 (centres unmarked) [Cpd 78, [1-Benzo[b]thiophen-2-yl-2-(3,4-dichloro-phenyl)-ethyl]-phosphonic acid diethyl ester]	95%			
CCOP(=O)(OCC)C(Cc1cccc(N)c1)c1sc2ccccc2c1Br (centres unmarked) [Cpd 318, [2-(3-Amino-phenyl)-1-(3-bromo-benzo[b]thiophen-2-yl)-ethyl]-phosphonic acid diethyl ester]			100%	
CCOP(=O)(Cc1cc2ccccc2s1)OCc1ccccc1Cl (centres unmarked) [Cpd 105]	48%	1010 nM		100%
CCOP(=O)(OCC)C(Cc1ccc(F)c(OC)c1)c1sc2ccccc2c1Br (centres unmarked) [Cpd 156]			103%	
COc1ccc(CC(c2sc3ccccc3c2Br)P(=O)(OC(C)C)OC(C)C)cc1F (centres unmarked) [Cpd 159]		36 nM	103%	
CCOP(=O)(OCC)C(Cc1cc(C(F)(F)F)cc(C(F)(F)F)c1)c1sc2ccccc2c1Cl (centres unmarked) [Cpd 282]		235 nM	100%	
CCOP(=O)(OCC)C(Cc1cccc(OC)c1F)c1sc2ccccc2c1Br (centres unmarked) [Cpd 162]		32 nM	103%	

SMILES	% I (1 μM)	IC50	% I (0.5 μM)	% I (5 μM) (compound at 5 μM)
CCOP(=O)(Cc1cc2ccccc2s1)OCc1c(Cl)cccc1Cl (centres unmarked) [Cpd 94, Benzo[b]thiophen-2-ylmethyl-phosphonic acid 2,6-dichloro-benzyl ester ethyl ester]	79%			
CCOP(=O)(OCC)C(Cc1ccc(OC)c(F)c1)c1sc2ccccc2c1Br (centres unmarked) [Cpd 158]		59 nM	101%	
CCOP(=O)(OCC)C(Cc1ccccc1Cl)c1sc2ccccc2c1C (racemic) [Cpd 48]	100%	169 nM		
CCOP(=O)(OCC)C(Cc1cccc(SC(F)(F)F)c1)c1sc2ccccc2c1Cl (centres unmarked) [Cpd 296]		137 nM	102%	
CCOP(=O)(OCC)C(Cc1ccc(F)c(F)c1)c1sc2ncccc2c1Br (centres unmarked) [Cpd 132, 1-[(3-Bromo-thieno[2,3-b]pyridin-2-yl)-2-(3,4-difluoro-phenyl)-ethyl]-phosphonic acid diethyl ester]	102%			
CC(C)OP(=O)(OC(C)C)C(Cc1ccc(F)cc1)c1sc2ccccc2c1Cl (centres unmarked) [Cpd 306]			101% and 102%	
COc1cc(CC(c2sc3ccccc3c2Br)P(=O)(OC(C)C)OC(C)C)ccc1F (centres unmarked) [Cpd 157]			103%	
CCOP(=O)(OCC)C(Cc1ccc(C(F)(F)F)c(F)c1)c1sc2ccccc2c1Br (centres unmarked) [Cpd 144]		58 nM	101%	
CCOP(=O)(OCC)C(Cc1cccc([N+](=O)[O-])c1)c1sc2ccccc2c1Br (centres unmarked) [Cpd 315]			103%	
CCOP(=O)(OCC)C(Cc1cc(Cl)ccc1F)c1sc2ccccc2c1Br (centres unmarked) [Cpd 307]		26 nM	103%	
CCOP(=O)(OCC)C(Cc1ccc(F)c(F)c1)c1sc2ccccc2c1-c1ccccc1F (centres unmarked) [Cpd 216]		126 nM	100%	
CC(C)OP(=O)(OC(C)C)[C@H](Cc1ccc(F)c(F)c1)c1sc2ccccc2c1Br [Cpd 235, (R)-[1-(3-Bromo-benzo[b]thiophen-2-yl)-2-(3,4-difluoro-phenyl)-ethyl]-phosphonic acid diisopropyl ester]			56%	
CCOP(=O)(OCC)C(Cc1ccc(F)c(F)c1)c1sc2ccccc2c1-c1ccccc1O (centres unmarked) [Cpd 215]		85 nM	101%	
CCOP(=O)(OCC)C(Cc1ccc2ccccc2c1)c1sc2ccccc2c1C (racemic) [Cpd 46]	99%	167 nM		
CCOP(=O)(OCC)C(Cc1cc(Cl)ccc1F)c1sc2ccccc2c1Cl (centres unmarked) [Cpd 305]		70 nM	102%	
CC(C)OP(=O)(OC(C)C)C(Cc1ccc(C(F)(F)F)cc1F)c1sc2ccccc2c1Br (centres unmarked) [Cpd 289]		51 nM	103%	
CC(C)OP(=O)(OC(C)C)C(Cc1ccc(F)c(F)c1)c1sc2ccccc2c1C(C)C (racemic) [Cpd 19]	100%	68 nM		
COc1ccc(CC(c2sc3ccccc3c2Br)P(=O)(OC(C)C)OC(C)C)c(F)c1 (centres unmarked) [Cpd 163]		20 nM	103%	
CCOP(=O)(OCC)C(Cc1c(F)c(F)c(OC)c(F)c1F)c1sc2ccccc2c1Br (centres unmarked) [Cpd 160]		60 nM	87%	
CCOP(=O)(OCC)C(Cc1ccc(Cl)c(Cl)c1)c1sc2ccccc2c1Br (centres unmarked) [Cpd 24, [1-(3-Bromo-benzo[b]thiophen-2-yl)-2-(3,4-dichloro-phenyl)-ethyl]-phosphonic acid diethyl ester]	100%			
CC(C)OP(=O)(OC(C)C)C(Cc1cccc(C(F)(F)F)c1)c1sc2ccccc2c1Cl (centres unmarked) [Cpd 170]		73 nM	103%	
CCOP(=O)(OCC)C(Cc1ccc(C(F)(F)F)cc1F)c1sc2ccccc2c1Cl (centres unmarked) [Cpd 291]		156 nM	103%	
CCOP(=O)(OCC)C(Cc1ccc(S(=O)(=O)C(F)(F)F)cc1)c1sc2ccccc2c1Cl (centres unmarked) [Cpd 300]		89 nM	103%	
